These results are taken from ChEMBL document CHEMBL5360582, “Caryophyllene Sesquiterpenes from a Chaetomium globosum Endophyte of the Canadian Medicinal Plant Empetrum nigrum” (J Nat Prod, 2023).

Converted amounts (≈) assume the structure as drawn. The source made the active and inactive calls. The rule behind the calls is not given here.

For assay [1], the system named is Mycobacterium tuberculosis. Kind of assay: Antimycobacterial activity against Mycobacterium tuberculosis H37Ra ATCC 25177 assessed as inhibition of bacterial growth. The format is functional, organism-based.
In assay [2] the test system is Staphylococcus aureus. The assay can be described thus: Antibacterial activity against Staphylococcus aureus ATCC 29213 assessed as inhibition of bacterial growth. The format is functional, organism-based.
The test system of the next assay is Candida albicans. The assay can be described thus: Antifungal activity against Candida albicans ATCC 14053 assessed as inhibition of bacterial growth at 100 microg/ml. The format is functional, organism-based. The following applies: dose 100.0 µg/ml.
For another assay, the system named is Pseudomonas aeruginosa. Kind of assay: Antibacterial activity against Pseudomonas aeruginosa ATCC 10145 assessed as inhibition of bacterial growth at 100 microg/ml. The format is functional, organism-based. The settings on record: dose 100.0 µg/ml.
Assay [3] concerns Mycobacterium tuberculosis. The assay can be described thus: Antimycobacterial activity against Mycobacterium tuberculosis H37Ra ATCC 25177 assessed as inhibition of bacterial growth at 100 microg/ml. The format is functional, organism-based. The settings on record: dose 100.0 µg/ml.
Assay [4] relates to Staphylococcus aureus. The assay can be described thus: Antibacterial activity against Staphylococcus aureus ATCC 29213 assessed as inhibition of bacterial growth at 100 microg/ml. Type of assay: functional, organism-based. The following applies: dose 100.0 µg/ml.
The next assay has as its system SMMC-7721. Kind of assay: Cytotoxicity against human SMMC-7721 cells assessed as inhibition of cell growth incubated for 68 hrs by MTT assay. Type of assay: functional, cell-based. The settings on record: SMMC-7721, 68 h.

Consider `C/C1=C/[C@@H](OC(=O)CCC(=O)O)/C=C(/C=O)[C@H]2CC(C)(C)[C@]2(O)CC1`, for which the IC50 in assay [1] was 36.8 µg/mL (≈ 105 µM); in the assay on Staphylococcus aureus [2], 83 µg/mL (≈ 237 µM).
In the case of `CC1(C)C[C@@H]2[C@@]3(CO)C=C[C@@H](O)[C@@]3(C)CC[C@]21O`, the outcome (in the assay with Candida albicans; with Pseudomonas aeruginosa; in assay [3]; in the assay on Staphylococcus aureus [4]) was inactive.
In the case of `CO[C@H]1[C@@H]2[C@@H](O)O[C@]3([C@H](OC(C)=O)C/C(C)=C\[C@@H]1OC)[C@H]2CC3(C)C`, the 50% inhibitory concentration (IC50) with SMMC-7721 amounted to 28.3 µM.
As for `CC1(C)C[C@@H]2/C(CO)=C\C=C/[C@@](C)(O)CC[C@]21O`, the outcome (in the assay with Candida albicans; in the assay on Pseudomonas aeruginosa; in assay [3]; in the assay with Staphylococcus aureus [4]) was inactive.
Turning to `COc1cc([C@@H]2c3cc4c(cc3[C@@H](O[C@@H]3O[C@@H]5CO[C@@H](C)O[C@H]5[C@H](O)[C@H]3O)[C@H]3COC(=O)[C@H]23)OCO4)cc(OC)c1O` [ETOPOSIDE], in the assay with SMMC-7721, the IC50 was found to be 23.2 µM.
